The target in assay [1] is Insulin-like growth factor 1 receptor (Homo sapiens, UniProt P08069). The assay is described as follows: Homogeneous Time-Resolved Fluorescence (HTRF) Assay. The conditions noted are these: pH 7.4; 22 °C. The text has this: (§1) The assay uses purified enzyme interacting with biotinylated peptide substrate.HTRF is based on the proximity of europium cryptate (donor fluorophore)-labeled antiphosphotyrosine and streptavidin labeled with APC (allophycocyanin), which have been brought together by a binding reaction. When the two entities come into close proximity and upon excitation, energy transfer occurs and APC re-emits at 665 nm. Relative fluorescence units were read on a Discovery plate reader (Packard). The IC50 values for inhibitors were determined by a four-parameter sigmoidal curve fit.
Sequence of Insulin-like growth factor 1 receptor (P08069 31-736 limits assumed): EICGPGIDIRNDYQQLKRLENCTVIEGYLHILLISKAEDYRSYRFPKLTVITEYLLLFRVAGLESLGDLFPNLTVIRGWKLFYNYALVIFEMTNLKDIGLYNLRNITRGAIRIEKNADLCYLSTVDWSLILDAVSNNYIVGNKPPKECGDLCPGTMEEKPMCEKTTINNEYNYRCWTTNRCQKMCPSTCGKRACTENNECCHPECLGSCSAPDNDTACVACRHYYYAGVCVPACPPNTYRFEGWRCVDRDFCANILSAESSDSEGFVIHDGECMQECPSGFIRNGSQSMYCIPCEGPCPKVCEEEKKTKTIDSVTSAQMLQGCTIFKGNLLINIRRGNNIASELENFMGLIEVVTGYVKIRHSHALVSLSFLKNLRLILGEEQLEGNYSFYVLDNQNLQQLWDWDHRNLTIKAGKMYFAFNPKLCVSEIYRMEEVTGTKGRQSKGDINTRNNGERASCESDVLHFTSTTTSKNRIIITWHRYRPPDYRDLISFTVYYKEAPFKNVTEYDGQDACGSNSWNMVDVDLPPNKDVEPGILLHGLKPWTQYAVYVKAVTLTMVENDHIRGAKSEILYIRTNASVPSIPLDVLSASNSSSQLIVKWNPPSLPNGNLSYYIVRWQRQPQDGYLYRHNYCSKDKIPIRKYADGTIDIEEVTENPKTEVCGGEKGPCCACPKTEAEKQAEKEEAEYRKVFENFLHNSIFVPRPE
Sequence of Insulin-like growth factor 1 receptor (P08069 741-1367 limits assumed): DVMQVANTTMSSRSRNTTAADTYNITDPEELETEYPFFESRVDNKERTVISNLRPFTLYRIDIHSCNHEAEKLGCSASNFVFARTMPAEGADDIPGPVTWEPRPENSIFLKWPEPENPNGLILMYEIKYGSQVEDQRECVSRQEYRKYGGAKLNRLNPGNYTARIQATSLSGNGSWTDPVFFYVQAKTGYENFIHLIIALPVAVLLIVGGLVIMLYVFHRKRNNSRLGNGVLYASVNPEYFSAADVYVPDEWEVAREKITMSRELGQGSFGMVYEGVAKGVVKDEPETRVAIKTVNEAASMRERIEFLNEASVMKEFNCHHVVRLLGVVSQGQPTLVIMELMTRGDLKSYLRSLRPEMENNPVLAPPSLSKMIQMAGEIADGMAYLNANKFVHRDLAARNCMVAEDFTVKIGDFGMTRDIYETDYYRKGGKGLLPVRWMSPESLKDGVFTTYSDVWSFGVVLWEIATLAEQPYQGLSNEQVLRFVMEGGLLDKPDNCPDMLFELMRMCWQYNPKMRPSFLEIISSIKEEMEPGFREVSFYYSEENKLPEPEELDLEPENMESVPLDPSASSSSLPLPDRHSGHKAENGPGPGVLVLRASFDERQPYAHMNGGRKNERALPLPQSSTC

A further assay addresses Insulin receptor (Homo sapiens, UniProt P06213). Described as above. The conditions noted are these: pH 7.4; 22 °C.
Excerpt: as §1

Sequence of Insulin receptor (P06213 28-758 limits assumed): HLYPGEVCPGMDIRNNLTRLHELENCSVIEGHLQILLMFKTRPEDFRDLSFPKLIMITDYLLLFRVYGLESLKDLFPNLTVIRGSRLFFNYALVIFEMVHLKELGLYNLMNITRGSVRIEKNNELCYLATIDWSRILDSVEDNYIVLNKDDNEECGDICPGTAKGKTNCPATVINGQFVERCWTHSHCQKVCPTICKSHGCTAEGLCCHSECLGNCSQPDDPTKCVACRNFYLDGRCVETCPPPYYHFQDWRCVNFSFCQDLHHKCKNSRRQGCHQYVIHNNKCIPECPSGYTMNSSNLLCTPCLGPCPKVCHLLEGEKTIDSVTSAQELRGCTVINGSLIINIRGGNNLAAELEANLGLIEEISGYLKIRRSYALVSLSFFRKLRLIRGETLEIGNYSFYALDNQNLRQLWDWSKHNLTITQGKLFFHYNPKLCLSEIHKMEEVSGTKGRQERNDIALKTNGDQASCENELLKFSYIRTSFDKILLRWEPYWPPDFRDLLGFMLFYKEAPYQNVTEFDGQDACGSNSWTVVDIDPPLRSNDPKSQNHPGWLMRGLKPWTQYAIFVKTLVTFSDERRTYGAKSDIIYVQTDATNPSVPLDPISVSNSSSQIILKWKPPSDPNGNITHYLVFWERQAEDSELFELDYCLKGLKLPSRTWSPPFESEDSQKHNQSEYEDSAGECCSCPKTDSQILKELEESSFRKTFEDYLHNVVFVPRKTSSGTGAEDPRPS
Sequence of Insulin receptor (P06213 763-1382 limits assumed): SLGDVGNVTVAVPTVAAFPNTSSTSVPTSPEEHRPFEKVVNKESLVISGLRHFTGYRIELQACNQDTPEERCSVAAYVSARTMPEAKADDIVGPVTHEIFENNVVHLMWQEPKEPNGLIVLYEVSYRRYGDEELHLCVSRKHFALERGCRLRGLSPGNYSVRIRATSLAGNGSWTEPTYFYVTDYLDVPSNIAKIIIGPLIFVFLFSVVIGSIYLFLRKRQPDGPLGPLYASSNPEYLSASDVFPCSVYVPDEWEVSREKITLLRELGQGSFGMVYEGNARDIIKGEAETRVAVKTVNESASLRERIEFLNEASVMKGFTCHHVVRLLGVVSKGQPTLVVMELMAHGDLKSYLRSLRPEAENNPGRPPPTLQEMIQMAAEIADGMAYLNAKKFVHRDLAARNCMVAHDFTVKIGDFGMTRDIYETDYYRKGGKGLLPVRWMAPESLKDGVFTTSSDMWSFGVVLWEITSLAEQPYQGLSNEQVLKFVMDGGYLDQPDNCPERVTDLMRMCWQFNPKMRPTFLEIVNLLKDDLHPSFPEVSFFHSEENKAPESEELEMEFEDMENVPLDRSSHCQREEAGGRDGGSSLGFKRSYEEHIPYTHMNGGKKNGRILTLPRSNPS

As for `CCOC(=O)c1[nH]c(C=O)c(C(=O)OCC)c1CC` [2,4-diethyl 3-ethyl-5-formyl-1H-pyrrole-2,4-dicarboxylate], the IC50 in assay [1] was 1.1 µM; at Insulin receptor, 5.4 µM.
The corresponding values for `CCOC(=O)c1[nH]c(CO)c(C(=O)OCC)c1C` [2,4-diethyl 5-(hydroxymethyl)-3-methyl-1H-pyrrole-2,4-dicarboxylate] are above 100 µM and above 100 µM.
`CCOC(=O)c1[nH]c(C=O)c(C(=O)OCC)c1C` [2,4-diethyl 5-formyl-3-methyl-1H-pyrrole-2,4-dicarboxylate]: the IC50 in assay [1] worked out at 2.7 µM; at Insulin receptor, 12 µM.
The corresponding values for `CCOC(=O)c1c(CC)c(C(=O)OC(C)(C)C)n(C)c1C=O` [2-tert-Butyl 4-Ethyl 3-Ethyl-5-formyl-1-methyl-1H-pyrrole-2,4-dicarboxylate] are 4.3 µM and 12 µM.
As for `CCOC(=O)c1c(C=O)[nH]c(C(=O)OC(C)(C)C)c1CC` [2-tert-Butyl 4-Ethyl 3-Ethyl-5-formyl-1H-pyrrole-2,4-dicarboxylate], the values for the IC50 (in assay [1]; at Insulin receptor) were 0.49 µM and 2 µM, respectively.
The corresponding values for `CCN(CC)C(=O)c1[nH]c(C=O)c(C(=O)N(CC)CC)c1C` [N,N,N,N-Tetraethyl-5-formyl-3-methyl-1H-pyrrole-2,4-dicarboxamide] are above 100 µM and above 100 µM.
Regarding `CCOC(=O)c1c(C=O)[nH]c(C(=O)NC(C)(C)C)c1CC` [ethyl 5-(tert-butylcarbamoyl)-4-ethyl-2-formyl-1H-pyrrole-3-carboxylate], the IC50 in assay [1] turned out to be 2.6 µM; on Insulin receptor it was 17 µM.
As for `COC(=O)[C@]1(O)C[C@@H]2O[C@@]1(C)n1c3ccccc3c3c4c(c5c6ccccc6n2c5c31)C(=O)NC4` [methyl (15R,16S,18S)-16-hydroxy-15-methyl-3-oxo-28-oxa-4,14,19-triazaoctacyclo[12.11.2.1^{15,18}.0^{2,6}.0^{7,27}.0^{8,13}.0^{19,26}.0^{20,25}]octacosa-1(26),2(6),7(27),8(13),9,11,20(25),21,23-nonaene-16-carboxylate], the results for the IC50 (in assay [1]; on Insulin receptor) were 0.47 µM and 0.21 µM, respectively.

(Values after BindingDB's records for doi:10.1021/bi0500628 (Merck Research Laboratories, 2005).)
